# ChEMBL document CHEMBL1201862, “PubChem BioAssay data set” (2004)
# Calls of active or inactive are those of the source.
# Experiments:
# [1] = molecular target: T1, Acyl-homoserine lactone acylase PvdQ (Pseudomonas aeruginosa (strain LESB58), UniProt Q9I194); test: PvdQ acylase enzyme activity blockers – biochemical, fluorescence, plate reader and imaging, cherry-picks, dose response (AID 493231)
# T1 sequence (Q9I194 whole entry): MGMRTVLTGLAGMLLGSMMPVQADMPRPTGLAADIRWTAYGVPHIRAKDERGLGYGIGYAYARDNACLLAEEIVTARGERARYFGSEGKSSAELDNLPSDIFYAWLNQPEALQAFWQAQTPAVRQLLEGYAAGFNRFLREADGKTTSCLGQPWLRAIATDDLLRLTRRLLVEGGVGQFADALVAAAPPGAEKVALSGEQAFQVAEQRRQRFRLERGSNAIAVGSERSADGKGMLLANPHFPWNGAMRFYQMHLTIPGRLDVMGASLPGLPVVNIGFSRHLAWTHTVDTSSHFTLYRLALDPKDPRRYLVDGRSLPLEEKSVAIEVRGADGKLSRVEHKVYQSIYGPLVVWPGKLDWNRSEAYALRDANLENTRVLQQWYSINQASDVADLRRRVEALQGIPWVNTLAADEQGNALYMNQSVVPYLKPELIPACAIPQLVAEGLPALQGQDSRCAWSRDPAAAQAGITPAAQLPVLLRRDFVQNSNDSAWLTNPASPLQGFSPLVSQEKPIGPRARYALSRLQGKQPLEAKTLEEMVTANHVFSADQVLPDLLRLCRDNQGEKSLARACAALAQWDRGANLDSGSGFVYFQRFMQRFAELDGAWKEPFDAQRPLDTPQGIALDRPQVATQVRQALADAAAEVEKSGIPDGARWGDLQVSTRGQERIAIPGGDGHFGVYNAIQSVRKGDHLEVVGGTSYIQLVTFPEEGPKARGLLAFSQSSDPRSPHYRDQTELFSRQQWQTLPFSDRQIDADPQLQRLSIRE
# [2] = HIV-1 Vif–A3G interaction blockers – biochemical, TR-FRET, GST-Vif 1-94, biotin-A3G peptide, dose response retest, primary screen (AID 1117319); format: functional;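 also: TR-FRET signal of purified GST-Vif binding a biotinylated A3G peptide; inhibitors lower the FRET signal by blocking Vif and A3G binding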
# [3] = HEK-293T cell viability reduction – luminescence, B-cell screen hits, cytotoxicity control for BCR NF-kB inhibitor project, dose response (AID 489021); format: functional, cell-based;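 also: HEK-293T cells carrying an NF-kB luciferase reporter; cells exposed to compound for about 14 hours before viability readout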
# [4] = viability loss in THP-1 monocytes – THP-1 cells, cytotoxicity control for Vif-APOBEC3G degradation inhibitor project, dose response (AID 1117359); format: functional; settings: THP-1
# [5] = blockers of CRF-binding protein–CRF-R2 complex – cell-based, uHTS hits, 384-well, dose response (AID 651639); format: functional, Homo sapiens; settings: read-out: IC50_Mean
# [6] = molecular target: T2, Corticotropin-releasing factor receptor 2/Corticotropin-releasing factor-binding protein (Homo sapiens, UniProt P24387+Q13324); test: Dose Response confirmation of uHTS hits for small molecule antagonists of the CRF-binding protein and CRF-R2 receptor complex.; format: functional; settings: read-out: IC50_Mean
# T2 sequence (Q13324 whole entry): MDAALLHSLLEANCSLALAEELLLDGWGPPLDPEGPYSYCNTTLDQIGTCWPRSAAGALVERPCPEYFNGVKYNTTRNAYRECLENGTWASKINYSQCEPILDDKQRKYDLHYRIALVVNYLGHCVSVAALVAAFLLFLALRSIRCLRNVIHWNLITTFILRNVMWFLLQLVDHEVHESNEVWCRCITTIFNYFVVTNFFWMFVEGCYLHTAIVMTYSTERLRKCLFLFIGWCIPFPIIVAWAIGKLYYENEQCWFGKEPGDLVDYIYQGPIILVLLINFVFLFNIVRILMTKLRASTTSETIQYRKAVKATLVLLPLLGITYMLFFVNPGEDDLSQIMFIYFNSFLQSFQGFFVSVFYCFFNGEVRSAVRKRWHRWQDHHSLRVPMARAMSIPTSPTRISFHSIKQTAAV
# T2 sequence (P24387 whole entry): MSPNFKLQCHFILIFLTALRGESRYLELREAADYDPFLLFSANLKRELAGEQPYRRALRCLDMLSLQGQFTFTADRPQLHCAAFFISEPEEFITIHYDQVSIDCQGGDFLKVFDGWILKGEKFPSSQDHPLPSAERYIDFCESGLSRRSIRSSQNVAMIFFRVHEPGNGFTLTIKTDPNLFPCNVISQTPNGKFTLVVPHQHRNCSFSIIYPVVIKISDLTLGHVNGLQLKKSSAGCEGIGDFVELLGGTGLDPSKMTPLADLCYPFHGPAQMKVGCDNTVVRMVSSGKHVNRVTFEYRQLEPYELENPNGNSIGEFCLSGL
# [7] = molecular target: T2, Corticotropin-releasing factor receptor 2/Corticotropin-releasing factor-binding protein; test: activators of CRF receptor 2 with binding protein – uHTS hits, confirmation (AID 602473); format: functional; settings: read-out: EC50_Mean
# [8] = general cell-killing toxicity readout – plate reader, dry powder samples, cytotoxicity control for PAX8 inhibitor project, dose response (AID 743021); format: functional, cell-based
# Paired box protein Pax-8 = Paired box protein Pax-8 (Homo sapiens, UniProt Q06710); test: PAX8 transcriptional activity inhibition in RMG-I – RMG-I cells, luciferase, cherry-pick, dose response (AID 687027); format: functional, cell-based;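 also: luciferase reporter driven by Pax8 target thyroperoxidase promoter measured by SteadyGlo luminescence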
# Sequence of Paired box protein Pax-8 (Q06710 whole entry, the tested form may be a part): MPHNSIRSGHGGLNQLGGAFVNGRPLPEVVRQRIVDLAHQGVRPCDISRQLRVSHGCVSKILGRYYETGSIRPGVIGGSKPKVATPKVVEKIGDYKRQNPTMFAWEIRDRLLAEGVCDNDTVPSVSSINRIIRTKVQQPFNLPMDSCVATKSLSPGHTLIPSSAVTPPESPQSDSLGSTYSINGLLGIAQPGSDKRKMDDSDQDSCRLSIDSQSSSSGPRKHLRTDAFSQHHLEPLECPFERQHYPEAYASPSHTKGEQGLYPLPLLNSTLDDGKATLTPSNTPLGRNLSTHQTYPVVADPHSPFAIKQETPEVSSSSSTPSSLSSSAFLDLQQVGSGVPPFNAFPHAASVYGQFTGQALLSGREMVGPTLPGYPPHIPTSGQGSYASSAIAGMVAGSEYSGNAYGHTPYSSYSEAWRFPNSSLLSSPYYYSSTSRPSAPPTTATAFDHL
# [9] = blockers of HIV-1 envelope-mediated cell-cell fusion – cherry-pick, dose response (AID 652057); format: functional, cell-based
# [10] = blockers of HIV-1 ZM109 envelope-driven cell-cell fusion – HeLa effector, CEM target cells, luciferase, cherry-pick, dose response (AID 652058); format: functional, cell-based;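 also: luciferase signal from HIV-1 Env mediated cell-cell fusion of effector and target cells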
# [11] = HIV-1 AD8 envelope cell-cell fusion blockers – cherry-pick, dose response (AID 652062); format: functional, cell-based;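 also: luciferase signal from cell-cell fusion driven by HIV-1 clade B AD8 Env; potency is for inhibitors of fusion seen as a drop in luminescence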
# [12] = OVCAR-3 cell viability loss – plate reader, dry powder samples, PAX8 inhibitor project, dose response (AID 743044); format: functional, cell-based
# [13] = OVCAR8 cell viability loss – plate reader, dry powder samples, PAX8 project, dose response (AID 743197); format: functional, cell-based; settings: OVCAR-8
# [14] = P. falciparum Dd2 growth inhibitors, dose response, SYBR Green, cherry-picked samples (AID 1159567); format: functional, cell-based
smiles,measurement,setting,value
Clc1ccc2scc(CN3CCCCC3)c2c1,AC50,[1],9.4 µM (active)
COc1ccc(-c2[nH]c(-c3ccc(C)cc3)nc2SCC(=O)NCc2ccco2)cc1OC,IC50,[2],> 100 µM (active)
CCCOc1ccc(NC(=O)C(=O)NCCCn2ccnc2)cc1,IC50,[3],> 80 µM (inactive)
O=C1NC(=O)N(Cc2ccco2)C(=O)/C1=C/NCc1ccc2c(c1)OCO2,IC50,[2],> 100 µM (active)
O=C(CSc1nnnn1-c1ccc2c(c1)CCC2)Nc1ccc2c(c1)OCCO2,CC50,[4],> 40 µM (active)
CC(=O)N(C(C)=O)c1cccc(N(Cc2ccccc2)Cc2ccccc2)c1,IC50,[5],> 20 µM (inactive)
same,IC50,[6],5.83 µM (active)
same,EC50,[7],> 53 µM (inactive)
COC(=O)C1=C(SC)N(c2ccccc2)C(c2ccccc2)CC1=O (stereo unspecified),AC50,[8],62 µM (active)
same,AC50,Paired box protein Pax-8,54.1 µM (active)
COc1cccc2ccc(CC(O)(c3ccccc3)c3ccccc3)nc12,IC50,[5],> 20 µM (inactive)
same,IC50,[6],< 0.368 µM (active)
same,EC50,[7],> 53 µM (inactive)
C[C@H](CO)N1C[C@H](C)[C@H](CN(C)Cc2ccc(F)cc2)OCc2ccccc2-c2ccccc2C1=O,AC50,[9],0.557 µM (active)
same,AC50,[10],1.39 µM (active)
same,AC50,[11],3.77 µM (active)
O=C(Cc1ccccc1)N[C@@H]1C=C[C@H](CC(=O)N2CCCCC2)O[C@@H]1CO,AC50,[10],28.7 µM (active)
C[C@@H]1CN([C@H](C)CO)C(=O)c2cc(NC(=O)Nc3ccc(F)cc3)ccc2O[C@@H](C)CCCCO[C@@H]1CN(C)Cc1ccc(Cl)c(Cl)c1,AC50,[12],20 µM (active)
same,AC50,Paired box protein Pax-8,8.1 µM (active)
same,AC50,[13],38.7 µM (active)
COc1ccc(/N=c2\scc(-c3ccc(OC)cc3)n2CCO)cc1,CC50,[4],28.5 µM (active)
same,IC50,[2],> 100 µM (active)
O=S(=O)(c1ccccc1)N1CC[C@@H]2[C@H](CO)Nc3ccc(C#CC4CCCCC4)cc3[C@@H]21,AC50,[14],6.42 µM (active)
O=C(c1cnccn1)N1CC(=O)N2[C@@H](CO)[C@@H](c3ccc(C#CCc4ccccc4)cc3)[C@@H]2C1,AC50,[14],15.7 µM (active)
CO[C@@H]1CN(C)C(=O)c2ccc(NC(=O)Nc3cc(Cl)cc(Cl)c3)cc2OC[C@H](C)NC[C@H]1C,AC50,[14],6.54 µM (active)
C[C@H](CO)N1C[C@H](C)[C@H](CN(C)S(=O)(=O)c2ccccc2)Oc2cc(C#Cc3ccncc3)ccc2S1(=O)=O,AC50,[14],6.63 µM (active)
